Data reported in ChEMBL document CHEMBL1125940 (Bioorg Med Chem Lett, 1991).
Positions of bridges follow the written chain, without caps; N, C: chain ends. Non-standard residues stand in square brackets, D forms with d. Residues, ends and D or L forms follow the SMILES beside them. Nle = CCCC[C@H](N)C(=O)O

Columns and labels:
Oryctolagus cuniculus = species on record: Oryctolagus cuniculus; assay: Effective concentration required for stimulation of vascular contraction tested in vitro using carotid arteries of New Zealand white rabbits; assay type: functional
Endothelin-1 receptor [1] = target: T1, Endothelin-1 receptor (Rattus norvegicus, UniProt P26684); assay: Binding affinity towards Endothelin A receptor in A10 rat thoracic aorta smooth muscle cells using [125I]ET1 as radioligand
T1 sequence (P26684 whole entry): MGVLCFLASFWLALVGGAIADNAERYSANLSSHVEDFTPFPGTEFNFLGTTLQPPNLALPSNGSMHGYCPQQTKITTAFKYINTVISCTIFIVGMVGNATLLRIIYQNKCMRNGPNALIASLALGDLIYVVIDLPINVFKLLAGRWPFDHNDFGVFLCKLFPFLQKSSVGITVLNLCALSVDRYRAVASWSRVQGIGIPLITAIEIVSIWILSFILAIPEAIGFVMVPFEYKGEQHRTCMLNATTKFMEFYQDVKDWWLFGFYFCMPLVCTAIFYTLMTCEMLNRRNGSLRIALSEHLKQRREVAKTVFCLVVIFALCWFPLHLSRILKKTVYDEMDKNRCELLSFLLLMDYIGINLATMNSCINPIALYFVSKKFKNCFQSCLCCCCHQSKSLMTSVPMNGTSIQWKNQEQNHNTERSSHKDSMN

Endothelin-1 receptor [2] = target: T1, Endothelin-1 receptor; assay: Binding affinity towards Endothelin A receptor in A10 rat thoracic aorta smooth muscle cells using [125I]ET1 as radioligand (Exp 1)
Endothelin-1 receptor [3] = target: T1, Endothelin-1 receptor; assay: Binding affinity towards Endothelin A receptor in A10 rat thoracic aorta smooth muscle cells using [125I]ET1 as radioligand (Exp 2)

Structure (SMILES)	EC50 (Oryctolagus cuniculus)	Kd (Endothelin-1 receptor [1])	Kd (Endothelin-1 receptor [2])	Kd (Endothelin-1 receptor [3])
CC[C@H](C)[C@H](NC(=O)[C@H](CC(=O)O)NC(=O)[C@H](C)NC(=O)[C@H](Cc1c[nH]cn1)NC(=O)[C@@H]1CSSC[C@H](N)C(=O)N[C@@H](CO)C(=O)N[C@H]2CSSC[C@H](NC(=O)[C@H](CCC(=O)O)NC(=O)[C@H](CCCCN)NC(=O)[C@H](CC(=O)O)NC(=O)[C@H](CCSC)NC(=O)[C@H](CC(C)C)NC(=O)[C@H](CO)NC(=O)[C@H](CO)NC2=O)C(=O)N[C@@H](C(C)C)C(=O)N[C@@H](Cc2ccc(O)cc2)C(=O)N[C@@H](Cc2ccccc2)C(=O)N1)C(=O)N[C@H](C(=O)N[C@@H](Cc1c[nH]c2ccccc12)C(=O)O)[C@@H](C)CC (H-CSCSSLMDKECVYFCHADIIW-OH; disulfide 1-15, 3-11)	–	–	6.6 nM	1910 nM
CCCC[C@@H]1NC(=O)[C@H](CC(C)C)NC(=O)[C@H](CO)NC(=O)[C@H](CO)NC(=O)[C@H](C)NC(=O)[C@H](CO)NC(=O)[C@@H](N)CSSC[C@@H](C(=O)N[C@@H](Cc2cnc[nH]2)C(=O)N[C@@H](CC(C)C)C(=O)N[C@@H](CC(=O)O)C(=O)N[C@H](C(=O)N[C@H](C(=O)N[C@@H](Cc2c[nH]c3ccccc23)C(=O)O)[C@@H](C)CC)[C@@H](C)CC)NC(=O)[C@H](Cc2ccccc2)NC(=O)[C@H](Cc2ccc(O)cc2)NC(=O)[C@H](C(C)C)NC(=O)[C@H](C)NC(=O)[C@H](CCC(=O)O)NC(=O)[C@H](CCCCN)NC(=O)[C@H](CC(=O)O)NC1=O (H-CSASSL[Nle]DKEAVYFCHLDIIW-OH; disulfide 1-15)	–	–	0.35 nM	16.6 nM
CC[C@H](C)[C@H](NC(=O)[C@H](CC(=O)O)NC(=O)[C@H](CC(C)C)NC(=O)[C@H](Cc1cnc[nH]1)NC(=O)[C@@H]1CSSC[C@H](N)C(=O)N[C@@H](CO)C(=O)N[C@H]2CSSC[C@H](NC(=O)[C@H](CCC(=O)O)NC(=O)[C@H](CCCCN)NC(=O)[C@H](CC(=O)O)NC(=O)[C@H](CCSC)NC(=O)[C@H](CC(C)C)NC(=O)[C@H](CO)NC(=O)[C@H](CO)NC2=O)C(=O)N[C@@H](C)C(=O)N[C@@H](Cc2ccc(O)cc2)C(=O)N[C@@H](Cc2ccccc2)C(=O)N1)C(=O)N[C@H](C(=O)N[C@@H](Cc1c[nH]c2ccccc12)C(=O)O)[C@@H](C)CC (H-CSCSSLMDKECAYFCHLDIIW-OH; disulfide 1-15, 3-11)	–	–	31 nM	1390 nM

Other lines, results leading:

EC50 (Oryctolagus cuniculus)	Kd (Endothelin-1 receptor [1])	Kd (Endothelin-1 receptor [2])	Kd (Endothelin-1 receptor [3])	Structure (SMILES)
31 nM	51.9 nM	–	–	CC[C@H](C)[C@H](NC(=O)[C@H](CC(=O)O)NC(=O)[C@H](CC(C)C)NC(=O)[C@H](C)NC(=O)[C@@H]1CSSC[C@H](N)C(=O)N[C@@H](CO)C(=O)N[C@H]2CSSC[C@H](NC(=O)[C@H](CCC(=O)O)NC(=O)[C@H](CCCCN)NC(=O)[C@H](CC(=O)O)NC(=O)[C@H](CCSC)NC(=O)[C@H](CC(C)C)NC(=O)[C@H](CO)NC(=O)[C@H](CO)NC2=O)C(=O)N[C@@H](C(C)C)C(=O)N[C@@H](Cc2ccc(O)cc2)C(=O)N[C@@H](Cc2ccccc2)C(=O)N1)C(=O)N[C@H](C(=O)N[C@@H](Cc1c[nH]c2ccccc12)C(=O)O)[C@@H](C)CC (H-CSCSSLMDKECVYFCALDIIW-OH; disulfide 1-15, 3-11)
–	–	96 nM	3120 nM	CC[C@H](C)[C@H](NC(=O)[C@H](C)NC(=O)[C@H](CC(=O)O)NC(=O)[C@H](CC(C)C)NC(=O)[C@H](Cc1cnc[nH]1)NC(=O)[C@@H]1CSSC[C@H](N)C(=O)N[C@@H](CO)C(=O)N[C@H]2CSSC[C@H](NC(=O)[C@H](CCC(=O)O)NC(=O)[C@H](CCCCN)NC(=O)[C@H](CC(=O)O)NC(=O)[C@H](CCSC)NC(=O)[C@H](CC(C)C)NC(=O)[C@H](CO)NC(=O)[C@H](CO)NC2=O)C(=O)N[C@@H](C(C)C)C(=O)N[C@@H](Cc2ccc(O)cc2)C(=O)N[C@@H](Cc2ccccc2)C(=O)N1)C(=O)N[C@@H](Cc1c[nH]c2ccccc12)C(=O)O (H-CSCSSLMDKECVYFCHLDAIW-OH; disulfide 1-15, 3-11)
–	–	0.7 nM	80 nM	CC[C@H](C)[C@H](NC(=O)[C@H](C)NC(=O)[C@H](CC(C)C)NC(=O)[C@H](Cc1cnc[nH]1)NC(=O)[C@@H]1CSSC[C@H](N)C(=O)N[C@@H](CO)C(=O)N[C@H]2CSSC[C@H](NC(=O)[C@H](CCC(=O)O)NC(=O)[C@H](CCCCN)NC(=O)[C@H](CC(=O)O)NC(=O)[C@H](CCSC)NC(=O)[C@H](CC(C)C)NC(=O)[C@H](CO)NC(=O)[C@H](CO)NC2=O)C(=O)N[C@@H](C(C)C)C(=O)N[C@@H](Cc2ccc(O)cc2)C(=O)N[C@@H](Cc2ccccc2)C(=O)N1)C(=O)N[C@H](C(=O)N[C@@H](Cc1c[nH]c2ccccc12)C(=O)O)[C@@H](C)CC (H-CSCSSLMDKECVYFCHLAIIW-OH; disulfide 1-15, 3-11)
–	–	9.6 nM	409 nM	CC[C@H](C)[C@H](NC(=O)[C@H](CC(=O)O)NC(=O)[C@H](CC(C)C)NC(=O)[C@H](Cc1cnc[nH]1)NC(=O)[C@@H]1CSSC[C@H](N)C(=O)N[C@@H](C)C(=O)N[C@H]2CSSC[C@H](NC(=O)[C@H](CCC(=O)O)NC(=O)[C@H](CCCCN)NC(=O)[C@H](CC(=O)O)NC(=O)[C@H](CCSC)NC(=O)[C@H](CC(C)C)NC(=O)[C@H](CO)NC(=O)[C@H](CO)NC2=O)C(=O)N[C@@H](C(C)C)C(=O)N[C@@H](Cc2ccc(O)cc2)C(=O)N[C@@H](Cc2ccccc2)C(=O)N1)C(=O)N[C@H](C(=O)N[C@@H](Cc1c[nH]c2ccccc12)C(=O)O)[C@@H](C)CC (H-CACSSLMDKECVYFCHLDIIW-OH; disulfide 1-15, 3-11)
